The source of these data is PMC4521150, “Discovery of Novel Inhibitors and Fluorescent Probe Targeting NAMPT” (Scientific Reports, 2015).

This test addresses T1, recombinant human NAMPT (Homo sapiens, UniProt P43490).
T1 construct: His tag (N); made in house; host or cells: E. coli BL21-CodonPlus (DE3)-RIL, pET21a+ vector
As to the kind of experiment: HTS / fixed-concentration NAMPT activity screen (fluorometric). It counts as biochemical. The conditions noted are these: 20 μM compound; analogues of the 46 non-fluorescent inhibitors. An excerpt:
Using our previously established high throughput screening (HTS) platform and recombinant human NAMPT[14][15], we performed a HTS on a chemical library containing 30000 small-molecules (Chemdiv, CA, USA). Our HTS targeting NAMPT was developed based on a fluorometric method for NAMPT activity assay by measuring the fluorescence of nicotinamide mononucleotide (NMN) derivative resulting from the NAMPT enzymatic product NMN through simple chemical reactions (Fig. 1A). The 30000 compounds were dissolved with dimethyl sulfoxide (DMSO); most of compounds were soluble at 10 mM stock solution (94.1%), some compounds insoluble at 10 mM were soluble at 2.5 mM stock solution (4.4%), and the remaining compounds insoluble at 2.5 mM (1.5%) were diluted further during HTS experiments (Fig. 1B). To guarantee the quality of screening, S/N ratio, CV and Z’ factors were monitored throughout the screenings, and all three indices met the requirements of HTS (Fig. 1C–E). After a primary screen and a secondary screen of all compounds at 20 μM, 242 compounds were selected as the hits of NAMPT inhibitors (NAMPT activity < 40%), and the hit rate was ~0.8% (Fig. 1F). […] All these 55 compounds were not reported as NAMPT inhibitors previously. Among the 55 compounds, we noted 46 compounds were non-fluorescent and 9 compounds were fluorescent (Fig. 1F). These fluorescent and non-fluorescent compounds were further studied separately.
HTS was performed using our previously reported method. 0.5 μl stock of each compound (1 mM DMSO stock) was transferred to a 96-well PCR plate for screening. In the primary screening, 5 ng NAMPT in 20 μl reaction buffer [0.4 mM phosphoribosylpyrophosphate (PRPP, Sigma), 2 mM ATP, 0.02% BSA, 2 mM DTT, 12 mM MgCl2 and 50 mM Tris-HCl (pH = 7.5)] was added into each well, the plate was incubated at 37 °C for 5 min, then 4.5 μl substrate of NAM was added to initiate the enzyme reaction, resulting in a final concentration of 2% DMSO, 2 μg/ml NAMPT, 0.2 μM NAM and 20 μM compound. After reacting at 37 °C for 15 min, the enzyme reaction was terminated by heating at 95 °C for 1 min and cooling in an ice bath. The product of NMN was detected through the following approach: after adding 10 μl 20% acetophenone in DMSO and 10 μl 2 M KOH into each well, the mixture was vortex-mixed and kept in ice bath for 2 min. Then 45 μl 88% formic acid was added and the mixture was incubated at 37 °C for 10 min. Finally, 85 μl mixtures in each well were transferred into a flat-bottom 96-well black plate (Greiner), and the fluorescence (F) was measured using a Tecan Infinity M200 plate reader (Tecan Group Ltd.) by setting the excitation and emission wavelength to 382 nm and 445 nm respectively. The last row of each 96-well plate includes six wells of background controls and six wells of reference controls. The relative enzyme activity (Activity%) regulated by specific compound was calculated according to equation (1):
F0 was the averaged fluorescence of six background controls, representing zero activity from a simulated enzyme reaction with only NAMPT but no NAM and compound; F100% was the averaged fluorescence of six reference controls, representing 100% activity from intact enzyme reaction without compound perturbation.
Compounds with Activity% less than 40% were considered as inhibitors and subjected to a secondary screen inhibition validation, in which another background control (FC0), a simulated enzyme reaction with NAMPT and compound but no NAM, was introduced to eliminate the direct and/or indirect influence from compound. At this stage, the Activity% was calculated according to equation (2): […]

T1 sequence (P43490 whole entry): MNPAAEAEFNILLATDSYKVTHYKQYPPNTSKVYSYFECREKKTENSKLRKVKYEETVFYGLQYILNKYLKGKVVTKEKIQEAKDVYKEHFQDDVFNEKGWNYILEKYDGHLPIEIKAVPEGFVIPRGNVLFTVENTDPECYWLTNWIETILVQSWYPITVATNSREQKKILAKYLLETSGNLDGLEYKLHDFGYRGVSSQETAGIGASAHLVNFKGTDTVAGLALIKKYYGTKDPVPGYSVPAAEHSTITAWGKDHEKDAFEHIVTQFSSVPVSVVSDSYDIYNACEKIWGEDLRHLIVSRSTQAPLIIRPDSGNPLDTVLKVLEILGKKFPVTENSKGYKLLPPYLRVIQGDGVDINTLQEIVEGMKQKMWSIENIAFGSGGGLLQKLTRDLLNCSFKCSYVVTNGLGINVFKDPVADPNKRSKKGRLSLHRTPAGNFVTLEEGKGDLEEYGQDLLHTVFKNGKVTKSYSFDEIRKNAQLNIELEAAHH

For the compound `CCCn1c(=O)c(-c2ccc(C(=O)NCc3cccnc3)cc2)nc2ccccc21` [M049-0244], the “NAMPT inhibition activity at 20 μM” value is on record as “Yes”.
